Assay results reported in ChEMBL document CHEMBL3826905, “1'-Homonucleosides and their structural analogues: A review” (Eur J Med Chem, 2016).
Converted amounts (≈) assume the structure as drawn.

System: not listed separately
Assay: Antiproliferative activity against human Molt4/C8 cells
Format: functional, cell-based
Settings: MOLT-4
`O=c1[nH]c(=O)n([C@H]2CC[C@@H](CO)C2)cc1I` showed an IC50 of 73 µg/mL (≈ 217 µM). `O=c1[nH]c(=O)n(C2CCCC2CO)cc1I` (centres undefined) gave an IC50 of 65.8 µg/mL (≈ 196 µM).

System: Cytomegalovirus
Assay: Antiviral activity against Cytomegalovirus AD169 infected in HEL cells assessed as inhibition of viral plaque formation
Format: functional, organism-based
Settings: Human betaherpesvirus 5, AD169, HEL
With `Nc1nc(Cl)c2ncn(C[C@H]3CCC[C@H]3CO)c2n1` the IC50 was greater than 5 µg/mL.

System: not listed separately
Assay: Inhibition of Escherichia coli methionyl-tRNA synthetase assessed as decrease in [35S]methionyl-tRNA generation
Settings: not given
Work on `CSCC[C@H](N)C(=O)OC[C@H]1O[C@@H](n2cnc3c(N)ncnc32)[C@H](O)[C@@H]1O` yielded an IC50 of 5 µM. Work on `CSCC[C@H](N)C(=O)OC[C@H]1O[C@@H](CCn2cnc3c(N)ncnc32)[C@H](O)[C@@H]1O` yielded an IC50 of 8.3 µM. In the case of `CSCC[C@H](N)C(=O)OC[C@H]1O[C@@H](Cn2cnc3c(NCc4ccccc4)ncnc32)[C@H](O)[C@@H]1O`, the IC50 is reported as 3.6 µM. `CSCC[C@H](N)C(=O)N(O)C[C@H]1O[C@@H](Cn2cnc3c(N)ncnc32)[C@H](O)[C@@H]1O` showed an IC50 of 3.6 µM. For `CSCC[C@H](N)C(=O)OC[C@H]1O[C@@H](Cn2cnc3c(N)ncnc32)[C@H](O)[C@@H]1O`, the IC50 was 3.6 µM.

System: Human immunodeficiency virus 2
Assay: Antiviral activity against HIV2 infected in human CEM cells assessed as protection against virus-induced cytopathicity by giant cell formation assay
Format: functional, organism-based
Settings: Human immunodeficiency virus 2, CCRF-CEM
In the case of `O=c1[nH]c(=O)n([C@H]2CCC[C@H]2CO)cc1I`, the EC50 is reported as 12.5 µg/mL (≈ 37.2 µM).

System: Influenza A virus
Assay: Antiviral activity against Influenza A virus
Format: functional, organism-based
Settings: not given
With `Nc1ncnc2c1ncn2C[C@H]1C[C@H](OCc2ccccc2)[C@@H](COCc2ccccc2)O1` the IC50 was 39.9 µg/mL (≈ 89.6 µM). With `Nc1ncnc2c1ncn2C[C@H]1C[C@H](O)[C@@H](CO)O1` the IC50 was 49.2 µg/mL (≈ 185 µM). Work on `Nc1ccn(C[C@H]2C[C@H](O)[C@@H](CO)O2)c(=O)n1` yielded an IC50 of 67.3 µg/mL (≈ 279 µM). With `Cc1cn(C[C@H]2C[C@H](O)[C@@H](CO)O2)c(=O)[nH]c1=O` the IC50 was 70.4 µg/mL (≈ 275 µM). `O=c1[nH]cnc2c1ncn2C[C@H]1C[C@H](OCc2ccccc2)[C@@H](COCc2ccccc2)O1` showed an IC50 of 24.3 µg/mL (≈ 54.4 µM). Compound `Cc1cn(C[C@H]2C[C@H](OCc3ccccc3)[C@@H](COCc3ccccc3)O2)c(=O)[nH]c1=O` has an IC50 of 70.3 µg/mL (≈ 161 µM). For `Nc1ccn(C[C@H]2C[C@H](OCc3ccccc3)[C@@H](COCc3ccccc3)O2)c(=O)n1`, the IC50 was 57.4 µg/mL (≈ 136 µM). With `O=c1ccn(C[C@H]2C[C@H](OCc3ccccc3)[C@@H](COCc3ccccc3)O2)c(=O)[nH]1` the IC50 was 108 µg/mL (≈ 256 µM). `O=c1[nH]cnc2c1ncn2C[C@H]1C[C@H](O)[C@@H](CO)O1` showed an IC50 of 25.2 µg/mL (≈ 94.6 µM).

System: Human immunodeficiency virus 2
Assay: Antiviral activity against HIV2
Format: functional, organism-based
Settings: not given
In the case of `CC1(C)[C@@H](Cn2cnc3c(N)nc(N)nc32)CC[C@@]1(C)CO`, the EC50 is reported as 4 µg/mL (≈ 13.1 µM).

System: not listed separately
Assay: Antiproliferative activity against mouse L1210/0 cells
Format: functional, cell-based
Settings: not given
`O=c1[nH]c(=O)n([C@H]2CC[C@@H](CO)C2)cc1I` showed an IC50 of 73 µg/mL (≈ 217 µM). `O=c1[nH]c(=O)n(C2CCCC2CO)cc1I` (centres undefined) showed an IC50 of 65.8 µg/mL (≈ 196 µM).

System: Cytomegalovirus
Assay: Antiviral activity against Cytomegalovirus Davis infected in HEL cells assessed as inhibition of virus plaque formation
Format: functional, organism-based
Settings: Human betaherpesvirus 5, Davis
In the case of `Nc1nc(Cl)c2ncn(C[C@H]3CCC[C@H]3CO)c2n1`, the IC50 is reported as greater than 5 µg/mL.

System: not listed separately
Assay: Antiproliferative activity against mouse L1210/0 cells after 48 hrs by trypan blue staining method
Format: functional, cell-based
Settings: L1210/0, 48 h
Compound `Nc1ncnc2c1ncn2C[C@H]1C=C[C@@H](CO)C1` has an IC50 greater than 200 µM. For `Nc1nc(NC2CCCC2)c2ncn(C[C@@H]3C[C@H](CO)c4c(-c5ccccc5)nnc(-c5ccccc5)c43)c2n1`, the IC50 was 65.7 µM. `Nc1nc2c(ncn2C[C@H]2C=C[C@@H](CO)C2)c(=O)[nH]1` showed an IC50 greater than 200 µM. In the case of `Nc1nc(Cl)c2ncn(C[C@@H]3C[C@H](CO)c4c(-c5ccccc5)nnc(-c5ccccc5)c43)c2n1`, the IC50 is reported as greater than 200 µM. `OC[C@@H]1C=C[C@H](Cn2cnc3c(O)ncnc32)C1` showed an IC50 greater than 200 µM. `CC1(C)[C@@H](Cn2cnc3c(NC4CC4)nc(N)nc32)CC[C@@]1(C)CO` showed an IC50 of 13.9 µg/mL.

System: not listed separately
Assay: Antiproliferative activity against human CEM/0 cells
Format: functional, cell-based
Settings: CCRF-CEM
With `O=c1[nH]c(=O)n(C2CCCC2CO)cc1I` (centres undefined) the IC50 was 65.8 µg/mL (≈ 196 µM).

Molecular target: T1, Inosine-uridine preferring nucleoside hydrolase (Crithidia fasciculata, UniProt Q27546)
T1 sequence (Q27546 whole entry): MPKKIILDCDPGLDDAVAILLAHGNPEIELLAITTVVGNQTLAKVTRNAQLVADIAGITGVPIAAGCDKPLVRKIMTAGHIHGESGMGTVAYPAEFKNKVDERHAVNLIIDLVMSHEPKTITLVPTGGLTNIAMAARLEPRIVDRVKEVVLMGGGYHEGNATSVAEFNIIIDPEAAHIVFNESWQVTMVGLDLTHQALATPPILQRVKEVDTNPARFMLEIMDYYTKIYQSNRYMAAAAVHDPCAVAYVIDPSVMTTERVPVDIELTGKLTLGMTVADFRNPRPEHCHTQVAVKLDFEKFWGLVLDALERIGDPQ
Assay: Inhibition of Crithidia fasciculata inosine-uridine nucleoside hydrolase expressed in Escherichia coli using p-nitrophenyl beta-D-ribofuranoside as substrate by xanthine oxidase coupled enzyme assay
Settings: not given
Compound `Nc1nc(O)c2ncn(C[C@@H]3N[C@H](CO)[C@@H](O)[C@H]3O)c2n1` has a Ki of 5.4 µM. For `OC[C@H]1N[C@@H](Cn2cnc3c(O)ncnc32)[C@H](O)[C@@H]1O`, the Ki was 5.4 µM. Work on `Nc1ncnc2c1N=CC2[C@@H]1N[C@H](CO)[C@@H](O)[C@H]1O` (some centres undefined) yielded a Ki of 0.007 µM.

System: Human immunodeficiency virus 1
Assay: Antiviral activity against HIV1
Format: functional, organism-based
Settings: not given
In the case of `CC1(C)[C@@H](Cn2cnc3c(N)nc(N)nc32)CC[C@@]1(C)CO`, the EC50 is reported as 4 µg/mL (≈ 13.1 µM).

Molecular target: T2, Inosine-adenosine-guanosine-nucleoside hydrolase (Trypanosoma brucei brucei, UniProt O15727)
T2 sequence (O15727 whole entry): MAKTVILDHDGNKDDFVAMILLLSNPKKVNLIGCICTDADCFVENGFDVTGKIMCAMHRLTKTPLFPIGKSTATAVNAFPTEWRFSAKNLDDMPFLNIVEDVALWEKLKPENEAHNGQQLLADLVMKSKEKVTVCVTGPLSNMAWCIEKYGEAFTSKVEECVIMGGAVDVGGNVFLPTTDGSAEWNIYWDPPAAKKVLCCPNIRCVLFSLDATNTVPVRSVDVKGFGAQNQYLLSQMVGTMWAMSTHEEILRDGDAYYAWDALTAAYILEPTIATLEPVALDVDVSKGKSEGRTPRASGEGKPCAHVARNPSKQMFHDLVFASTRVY
Assay: Inhibition of Trypanosoma brucei brucei inosine-adenosine-guanosine nucleoside hydrolase expressed in Escherichia coli
Settings: not given
`Nc1nc(O)c2ncn(C[C@@H]3N[C@H](CO)[C@@H](O)[C@H]3O)c2n1` showed a Ki of 3.6 µM. Work on `OC[C@H]1N[C@@H](Cn2cnc3c(O)ncnc32)[C@H](O)[C@@H]1O` yielded a Ki of 3.6 µM. Work on `Nc1ncnc2c1N=CC2[C@@H]1N[C@H](CO)[C@@H](O)[C@H]1O` (some centres undefined) yielded a Ki of 0.003 µM.

Molecular target: Isoleucine--tRNA ligase (Escherichia coli K-12, UniProt P00956)
Sequence (P00956 whole entry): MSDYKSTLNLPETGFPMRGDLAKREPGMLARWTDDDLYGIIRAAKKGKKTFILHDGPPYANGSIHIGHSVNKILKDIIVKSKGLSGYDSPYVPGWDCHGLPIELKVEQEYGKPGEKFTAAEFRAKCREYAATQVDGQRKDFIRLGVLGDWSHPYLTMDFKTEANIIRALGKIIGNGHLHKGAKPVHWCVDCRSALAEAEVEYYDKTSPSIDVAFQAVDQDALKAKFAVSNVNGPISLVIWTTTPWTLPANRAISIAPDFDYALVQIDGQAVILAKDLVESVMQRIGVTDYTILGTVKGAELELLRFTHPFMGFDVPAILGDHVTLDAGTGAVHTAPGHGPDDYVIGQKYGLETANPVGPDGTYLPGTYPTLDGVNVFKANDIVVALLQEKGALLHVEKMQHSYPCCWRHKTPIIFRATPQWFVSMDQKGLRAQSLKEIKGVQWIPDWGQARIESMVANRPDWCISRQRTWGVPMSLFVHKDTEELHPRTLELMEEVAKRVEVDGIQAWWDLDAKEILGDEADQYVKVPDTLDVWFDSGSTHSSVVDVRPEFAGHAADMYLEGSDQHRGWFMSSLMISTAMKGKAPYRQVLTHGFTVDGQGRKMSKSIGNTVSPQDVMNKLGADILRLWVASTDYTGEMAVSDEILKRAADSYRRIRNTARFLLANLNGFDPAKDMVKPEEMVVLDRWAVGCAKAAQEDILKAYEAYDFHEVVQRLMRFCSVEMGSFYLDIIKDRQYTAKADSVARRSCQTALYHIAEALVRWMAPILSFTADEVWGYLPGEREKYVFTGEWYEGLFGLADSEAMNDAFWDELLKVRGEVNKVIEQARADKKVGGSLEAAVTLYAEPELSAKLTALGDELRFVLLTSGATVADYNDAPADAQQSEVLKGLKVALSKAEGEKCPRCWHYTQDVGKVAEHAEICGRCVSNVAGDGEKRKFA
Assay: Inhibition of Escherichia coli isoleucyl-tRNA synthetase assessed as decrease in [3H]isoleucyl-tRNA generation
Settings: not given
Work on `CC[C@H](C)[C@H](N)C(=O)N(O)C[C@H]1O[C@@H](Cn2cnc3c(N)ncnc32)[C@H](O)[C@@H]1O` yielded an IC50 greater than 128 µM. `CC[C@H](C)[C@H](N)C(=O)OC[C@H]1O[C@@H](Cn2cnc3c(N)ncnc32)[C@H](O)[C@@H]1O` showed an IC50 greater than 128 µM.

System: Human immunodeficiency virus 1
Assay: Antiviral activity against HIV1 infected in human CEM cells assessed as protection against virus-induced cytopathicity by giant cell formation assay
Format: functional, organism-based
Settings: Human immunodeficiency virus 1, CCRF-CEM
For `O=c1[nH]c(=O)n([C@H]2CCC[C@H]2CO)cc1I`, the EC50 was 12.5 µg/mL (≈ 37.2 µM).
